Patent publication US10562912B2 (C&C Research Laboratories, priority 2013, dated 2020)

Assays:
Format in all cases: cell-based
STAT3 = target: T1, STAT3 (Homo sapiens, UniProt P40763); assay: STAT3 reporter gene assay (luciferase), LNCaP stable cell line (pSTAT3-TA-luc), IL-6 stimulation
T1 construct: plasmid pSTAT3-TA-luc), which contains a stably operating STAT3 promoter; endogenous in cells
Experimental: 1-1) Experiment on the Inhibition of STAT3 Activity
A human prostate cancer cell line (LNCaP stable cell line; plasmid pSTAT3-TA-luc), which contains a stably operating STAT3 promoter, was cultured in RPMI1640 medium (Cat No. 11875, Life Technologies) containing 10% fetal bovine serum (FBS) (Cat No. SH30396, Thermo Scientific) and 150 μg/mL G-418 solution (Cat No. 04 727 894 001, Roche). The reporter gene assay using LNCaP stable cell line was performed in RPMI1640 medium containing 3% DCC-FBS without G-418 solution. LNCaP stable cells were plated in two (2) white 96-well plates with 30,000 cells/50 μL in each well. The cells were cultured at 37° C., under 5% CO2 for 24 hours, and then treated with the compounds listed in Examples which were diluted in various concentrations. Subsequently, IL-6 was added to each well with a final concentration of 10 ng/mL. Upon completion of the treatment with the compounds and IL-6, the cells were cultured at 37° C., under 5% CO2 for from 24 to 48 hours. The plates were observed under microscope and drug precipitation and particular findings were investigated and recorded.
The luciferase assay and the cell viability assay were performed respectively with one of the two plates. For the luciferase assay, the liquid media in the 96-well plate was removed, and then, 20 μL of passive cell lysis buffer was added to each well. After shaking the plate for 30 minutes, luciferase activities of each well were measured in a PHERAstar™ microplate reader (BMG LABTECH) using a luciferase assay system (Cat No. E1501, Promega). For the cell viability assay, the 96-well plate was placed at room temperature for 30 minutes, added with 20 μL/well of CellTiter-Glo solution (Cat No. G7573, Promega), and shaken for 10 minutes in order to measure cytotoxicity caused by the compounds listed in Examples with a PHERAstar™ microplate reader (BMG LABTECH). Wells without 0.1% DMSO and stimulation were used as a negative control and wells with 0.1% DMSO and stimulation were used as a positive control.

LNCaP = assay: Cell growth inhibition assay, prostate cancer cell line LNCaP (medium with 10 ng/mL IL-6); settings: Homo sapiens, medium supplemented with 10 ng/mL of IL-6, 10,000 cells/well
Experimental: (§1) The inhibitory effects of the compounds of the present invention against the growth of cancer cells were evaluated as shown below. The cancer cell lines including stomach cancer cell line (AGS), breast cancer cell lines (MDA-MB-231, MDA-MB-468, and BT-549), prostate cancer cell lines (LNCaP and DU-145), colon cancer cell line (HCT116), ovarian cancer cell line (SW626), liver cancer cell line (Hep3B), kidney cancer cell line (ACHN), lung cancer cell line (NCI-H23) and blood cancer cell lines (HEL92.1.7 and U266) were cultured under the protocol provided by each supplier. A medium supplemented with 10 ng/mL of IL-6 was used for LNCaP, a prostate cancer cell line, when treated with a drug. Each type of cells to be used in experiments were sub-cultured in a 96-well plate by counting the exact number of cells using Tali™ Image-based Cytometer (Life Technologies). In a 96-well plate, AGS, HCT116, and DU-145 were employed with 3,000 cells/well; NCI-H23, SW626, Hep3B, ACHN, BT-549, MDA-MB-231, HEL92.1.7, and U266 were employed with 5,000 cells/well; and LNCaP and MDA-MB-468 were employed with 10,000 cells/well. The cells were treated with the compounds listed in Examples which were diluted in various concentrations. Upon completion of the compounds treatment, AGS, HCT116, SW626, DU145, NCI-H23, Hep3B, ACHN, BT-549, LNCaP, HEL92.1.7, and U266 cells were cultured at 37° C. under 5% CO2 for from 72 to 96 hours, and MDA-MB-231 and MDA-MB-468 cells were cultured at 37° C. in air for from 72 to 96 hours. Subsequently, the cells were observed under microscope and drug precipitation and particular findings were investigated and recorded. And then, the 96-well plate was placed at room temperature for 30 minutes, added with 20 μL/well of CellTiter-Glo solution (Cat No. G7573, Promega) and shaken for 10 minutes, followed by being subjected to the measurement using PHERAstar™ microplate reader (BMG LABTECH) according to the supplier's general luminometer protocol. Wells where only culture liquid added without cell plating were used as a negative control, whereas wells where culture liquid containing 0.1% DMSO instead of the compounds listed in Examples were used as a positive control.

DU-145 = assay: Cell growth inhibition assay, prostate cancer cell line DU-145; settings: Homo sapiens, DU-145 prostate cancer cell line
Experimental: as §1

T1 sequence (P40763 whole entry): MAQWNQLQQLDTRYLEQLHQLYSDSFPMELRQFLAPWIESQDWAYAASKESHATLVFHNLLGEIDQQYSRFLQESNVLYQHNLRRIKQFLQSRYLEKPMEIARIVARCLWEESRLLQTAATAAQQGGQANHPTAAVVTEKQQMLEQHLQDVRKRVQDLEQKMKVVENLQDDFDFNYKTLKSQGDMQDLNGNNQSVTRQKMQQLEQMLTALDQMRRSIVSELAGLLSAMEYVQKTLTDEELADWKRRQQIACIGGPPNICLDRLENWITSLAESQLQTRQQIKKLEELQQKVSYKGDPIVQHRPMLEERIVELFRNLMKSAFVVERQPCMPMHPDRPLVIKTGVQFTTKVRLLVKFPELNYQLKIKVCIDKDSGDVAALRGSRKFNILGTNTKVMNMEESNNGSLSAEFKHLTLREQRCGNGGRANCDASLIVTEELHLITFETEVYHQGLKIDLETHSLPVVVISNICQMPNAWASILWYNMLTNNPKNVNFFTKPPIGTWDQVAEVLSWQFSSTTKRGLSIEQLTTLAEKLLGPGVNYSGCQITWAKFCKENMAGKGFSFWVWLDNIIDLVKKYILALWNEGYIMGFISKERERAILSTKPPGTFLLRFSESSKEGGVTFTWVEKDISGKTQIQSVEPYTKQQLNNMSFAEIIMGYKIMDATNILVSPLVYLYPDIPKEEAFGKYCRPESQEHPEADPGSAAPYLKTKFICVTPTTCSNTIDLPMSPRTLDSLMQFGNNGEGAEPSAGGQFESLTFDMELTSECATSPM

Structure (SMILES)	IC50 (STAT3) [µM]	IC50 (LNCaP) [µM]	IC50 (DU-145) [µM]
CC(C)Oc1cc(OC(F)(F)F)cc(C(C)(C)c2cc(Cl)cc(NC(=O)C3=Cc4cc(NS(C)(=O)=O)ccc4S3(=O)=O)c2)c1 [Example 222, N-(3-chloro-5-(2-(3-isopropoxy-5-(trifluoromethoxy)phenyl)propan-2-yl)phenyl)-5-(methylsulfonamido)benzo[b]thiophene-2-carboxamide 1,1-dioxide]	6.1	> 1.1	> 1.1
CS(=O)(=O)Nc1ccc2sc(C(=O)Nc3cc(Cl)cc(Oc4ccc(F)c(OC(F)(F)F)c4)c3)cc2c1 [Example 470, N-(3-chloro-5-(4-fluoro-3-(trifluoromethoxy)phenoxy)phenyl)-5-(methylsulfonamido)benzo[b]thiophene-2-carboxamide]	0.32	0.067	0.043
CC(C)Oc1cc(Oc2cc(Cl)cc(NC(=O)c3cc4cc(NS(C)(=O)=O)ccc4s3)c2)cc(OC(F)(F)F)c1 [Example 452, N-(3-chloro-5-(3-isopropoxy-5-(trifluoromethoxy)phenoxy)phenyl)-5-(methylsulfonamido)benzo[b]thiophene-2-carboxamide]	0.079	0.33	0.027
CS(=O)(=O)Nc1ccc2sc(C(=O)Nc3cc(Cl)cc(Oc4cccc(Cl)c4)c3)cc2c1 [Example 456, N-(3-chloro-5-(3-chlorophenoxy)phenyl)-5-(methylsulfonamido)benzo[b]thiophene-2-carboxamide]	0.19	0.3	0.25
Cn1nccc1-c1ccc(C(C)(C)c2cc(Cl)cc(NC(=O)c3cc4cc(NS(C)(=O)=O)ccc4s3)c2)cc1 [Example 159, N-(3-chloro-5-(2-(4-(1-methyl-1H-pyrazol-5-yl)phenyl)propan-2-yl)phenyl)-5-(methylsulfonamido)benzo[b]thiophene-2-carboxamide]	0.31	0.16	0.14
CS(=O)(=O)Nc1ccc2sc(C(=O)Nc3cc(Cl)cc(Oc4ccc(Cl)cc4Cl)c3)cc2c1 [Example 462, N-(3-chloro-5-(2,4-dichlorophenoxy)phenyl)-5-(methylsulfonamido)benzo[b]thiophene-2-carboxamide]	0.13	0.33	0.13
CS(=O)(=O)Nc1ccc2sc(C(=O)Nc3cc(Cl)cc(Oc4cccc(C(F)(F)F)c4)c3)cc2c1 [Example 455, N-(3-chloro-5-(3-(trifluoromethyl)phenoxy)phenyl)-5-(methylsulfonamido)benzo[b]thiophene-2-carboxamide]	0.19	0.22	0.19
CS(=O)(=O)Nc1ccc2sc(C(=O)Nc3cc(Cl)cc(Oc4cc(Cl)cc(Cl)c4)c3)cc2c1 [Example 464, N-(3-chloro-5-(3,5-dichlorophenoxy)phenyl)-5-(methylsulfonamido)benzo[b]thiophene-2-carboxamide]	0.17	0.31	0.16
CC(C)Oc1cc(CN2CCN(c3nnc(C(C)C)o3)CC2)cc(C(C)(C)c2cc(Cl)cc(NC(=O)c3cc4cc(NS(C)(=O)=O)ccc4s3)c2)c1 [Example 135, N-(3-chloro-5-(2-(3-isopropoxy-5-((4-(5-isopropyl-1,3,4-oxadiazol-2-yl)piperazin-1-yl)methyl)phenyl)propan-2-yl)phenyl)-5-(methylsulfonamido)benzo[b]thiophene-2-carboxamide]	0.14	0.85	0.3
CS(=O)(=O)Nc1ccc2sc(C(=O)Nc3cc(Cl)cc(Oc4ccc(C#N)cc4)c3)cc2c1 [Example 451, N-(3-chloro-5-(4-cyanophenoxy)phenyl)-5-(methylsulfonamido)benzo[b]thiophene-2-carboxamide]	0.14	0.51	0.19
CS(=O)(=O)Nc1cc2cc(C(=O)Nc3cc(Cl)cc(Oc4ccc(F)c(F)c4)c3)sc2cc1Cl [Example 481, 6-chloro-N-(3-chloro-5-(3,4-difluorophenoxy)phenyl)-5-(methylsulfonamido)benzo[b]thiophene-2-carboxamide]	0.015	0.036	0.008

The remaining molecules from weak to strong by IC50 (STAT3), led by results:

IC50 (STAT3) [µM]	IC50 (LNCaP) [µM]	IC50 (DU-145) [µM]	Structure (SMILES)
5.7	> 1.1	> 1.1	CS(=O)(=O)Nc1ccc2sc(C(=O)Nc3cc(Cl)cc(-c4ccc(F)cc4F)c3)c(O)c2c1 [Example 335, N-(5-chloro-2′,4′-difluoro-[1,1′-biphenyl]-3-yl)-3-hydroxy-5-(methylsulfonamido)benzo[b]thiophene-2-carboxamide]
0.224	0.42	0.58	CC(C)Oc1cc(OC(F)(F)F)cc(C(C)(C)c2cc(Cl)cc(NC(=O)c3cc4c(s3)CCN(NS(C)(=O)=O)C4)c2)c1 [Example 104, N-(3-chloro-5-(2-(3-isopropoxy-5-(trifluoromethoxy)phenyl)propan-2-yl)phenyl)-5-(methylsulfonamido)-4,5,6,7-tetrahydrothieno[3,2-c]pyridine-2-carboxamide]
0.11	0.11	0.031	CS(=O)(=O)Nc1ccc2sc(C(=O)Nc3cc(Cl)nc(Oc4ccc(Cl)cc4)c3)cc2c1 [Example 489, N-(2-chloro-6-(4-chlorophenoxy)pyridin-4-yl)-5-(methylsulfonamido)benzo[b]thiophene-2-carboxamide]
0.012	0.065	0.016	CC(C)Oc1cc(OC(F)(F)F)cc(C(C)(C)c2cc(Cl)cc(NC(=O)c3cc4cc(NS(=O)(=O)CC5CCCO5)ccc4s3)c2)c1 (stereo not drawn) [Example 197, N-(3-chloro-5-(2-(3-isopropoxy-5-(trifluoromethoxy)phenyl)propan-2-yl)phenyl)-5-(((tetrahydrofuran-2-yl)methyl)sulfonamido)benzo[b]thiophene-2-carboxamide]
0.01	< 0.005	< 0.005	CC(C)c1ccc(C(C)(C)c2cc(Cl)cc(NC(=O)c3cc4cc(NS(C)(=O)=O)c(Cl)cc4s3)c2)s1 [Example 180, 6-chloro-N-(3-chloro-5-(2-(5-isopropylthiophen-2-yl)propan-2-yl)phenyl)-5-(methylsulfonamido)benzo[b]thiophene-2-carboxamide]
0.009	0.012	0.026	CN(c1ccc(Cl)cc1)c1cc(Cl)cc(NC(=O)c2cc3cc(NS(C)(=O)=O)c(Cl)cc3s2)c1 [Example 441, 6-chloro-N-(3-chloro-5-((4-chlorophenyl)(methyl)amino)phenyl)-5-(methylsulfonamido)benzo[b]thiophene-2-carboxamide]
0.005	0.002	0.001	CC(C)Oc1cc(OC(F)(F)F)cc(C(C)(C)c2cc(Cl)cc(NC(=O)c3cc4cc(NS(C)(=O)=O)c(Cl)cc4s3)c2)c1 [Example 105, 6-chloro-N-(3-chloro-5-(2-(3-isopropoxy-5-(trifluoromethoxy)phenyl)propan-2-yl)phenyl)-5-(methylsulfonamido)benzo[b]thiophene-2-carboxamide]
